Data from patent publication US20160067331A1 (priority 2013, published 2016).

Columns and labels:
[1] = test system: T cell receptor (TCR) signaling; type: cell-based, human
Lck = Lck (Homo sapiens, UniProt P06239); type: biochemical
Sequence of Lck (P06239 whole entry): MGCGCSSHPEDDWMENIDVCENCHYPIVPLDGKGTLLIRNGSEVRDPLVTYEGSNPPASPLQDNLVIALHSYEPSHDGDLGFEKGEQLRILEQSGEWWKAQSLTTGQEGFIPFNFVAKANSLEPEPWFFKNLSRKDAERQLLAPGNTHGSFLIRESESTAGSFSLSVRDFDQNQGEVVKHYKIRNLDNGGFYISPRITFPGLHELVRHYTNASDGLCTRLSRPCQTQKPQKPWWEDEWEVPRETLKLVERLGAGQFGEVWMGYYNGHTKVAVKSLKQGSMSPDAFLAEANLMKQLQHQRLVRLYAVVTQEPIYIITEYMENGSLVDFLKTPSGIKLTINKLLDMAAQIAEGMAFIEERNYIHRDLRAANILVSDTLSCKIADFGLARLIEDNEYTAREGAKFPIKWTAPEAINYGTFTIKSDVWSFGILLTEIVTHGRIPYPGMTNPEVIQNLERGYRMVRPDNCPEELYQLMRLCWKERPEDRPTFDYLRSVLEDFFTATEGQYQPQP

| Sequence | IL-2 production by PBMCs following TCR stimulation [1] | surface expression of T cell activation marker CD25 [1] | surface expression of T cell activation marker CD69 [1] | Lck-mediated phosphorylation of synthetic peptide (Lck) |
| --- | --- | --- | --- | --- |
| GGGGGRKKRRQRRRVYGSVSVTCVWGS [TAT-Y87] | inhibited | significantly reduced | significantly reduced | phosphorylated by Lck in a dose-dependent manner |
| GGAGLTGGRYEPLVRRC [TAT-276-292] |  |  |  | served as an in vitro Lck substrate |
